Assay results: patent US20180282275A1, “New alkynyl-substituted 3-phenylpyrrolidine-2,4-diones and use thereof as herbicides” (Bayer CropScience Aktiengesellschaft, priority 2015, published 2018)

Columns and labels:
Type in all cases: in vivo
Alopecurus myosuroides [1] = test: Pre-emergence herbicidal effect, greenhouse pot test; conditions: 504 h, 320 g a.i./ha, visual score after 3 weeks, 100% = plants have died, 0% = like control, read-out: Herbicidal effect against [%] ALOMY
Excerpt: (§1) Seeds of monocotyledonous and dicotyledonous weed plants and crop plants are laid out in wood-fibre pots in sandy loam and covered with soil. The compounds according to the invention formulated in the form of wettable powders (WP) or as emulsion concentrates (EC) are then applied as aqueous suspension or emulsion at a water application rate of 600 to 800 l/ha (converted) with the addition of 0.2% wetting agent to the surface of the covering soil. After the treatment, the pots are placed in a greenhouse and kept under good growth conditions for the trial plants. The damage to the test plants is scored visually after a test period of 3 weeks by comparison with untreated controls (herbicidal activity in percent (%): 100% activity=the plants have died, 0% activity=like control plants). [table]

Avena fatua [2] = test: as above; conditions: 504 h, 320 g a.i./ha, visual score after 3 weeks, 100% = plants have died, 0% = like control, read-out: Herbicidal effect against [%] AVEFA
Excerpt: as §1

Cyperus esculentus = test: as above; conditions: 320 g a.i./ha, visual score after 3 weeks, 100% = plants have died, 0% = like control
Excerpt: as §1

Echinochloa crus-galli [3] = test: as above; conditions: 504 h, 320 g a.i./ha, visual score after 3 weeks, 100% = plants have died, 0% = like control, read-out: Herbicidal effect against [%] ECHCG
Excerpt: as §1

Hordeum murinum [4] = test: as above; conditions: 320 g a.i./ha, visual score after 3 weeks, 100% = plants have died, 0% = like control
Excerpt: as §1

Lolium rigidium [5] = test: as above; conditions: 320 g a.i./ha, visual score after 3 weeks, 100% = plants have died, 0% = like control
Excerpt: as §1

Setaria viridis [6] = test: as above; conditions: 504 h, 320 g a.i./ha, visual score after 3 weeks, 100% = plants have died, 0% = like control, read-out: Herbicidal effect against [%] SETVI
Excerpt: as §1

Alopecurus myosuroides [7] = test: Post-emergence herbicidal effect, greenhouse pot test; conditions: 504 h, 80 g a.i./ha, one-leaf stage, visual score after about 3 weeks, 100% = plants have died, read-out: Herbicidal effect against [%] ALOMY
Procedure: (§2) [table] Seeds of monocotyledonous and dicotyledonous weed and crop plants are laid out in sandy loam in wood-fibre pots, covered with soil and cultivated in a greenhouse under good growth conditions. 2 to 3 weeks after sowing, the test plants are treated at the one-leaf stage. The compounds according to the invention, formulated in the form of wettable powders (WP) or as emulsion concentrates (EC), are then sprayed as aqueous suspension or emulsion at a water application rate of 600 to 800 l/ha (converted) with the addition of 0.2% of wetting agent onto the green parts of the plants. After the test plants have been left to stand in the greenhouse under optimal growth conditions for about 3 weeks, the action of the preparations is assessed visually in comparison to untreated controls (herbicidal action in percent (%): 100% activity=the plants have died, 0% activity=like control plants).

Avena fatua [8] = test: as above; conditions: 80 g a.i./ha, one-leaf stage, visual score after about 3 weeks, 100% = plants have died
Procedure: as §2

Echinochloa crus-galli [9] = test: as above; conditions: 504 h, 80 g a.i./ha, one-leaf stage, visual score after about 3 weeks, 100% = plants have died, read-out: Herbicidal effect against [%] ECHCG
Procedure: as §2

Hordeum murinum [10] = test: as above; conditions: 80 g a.i./ha, one-leaf stage, visual score after about 3 weeks, 100% = plants have died
Procedure: as §2

Lolium rigidium [11] = test: as above; conditions: 80 g a.i./ha, one-leaf stage, visual score after about 3 weeks, 100% = plants have died
Procedure: as §2

Setaria viridis [12] = test: as above; conditions: 504 h, 80 g a.i./ha, one-leaf stage, visual score after about 3 weeks, 100% = plants have died, read-out: Herbicidal effect against [%] SETVI
Procedure: as §2

Stellaria media = test: as above; conditions: 80 g a.i./ha, one-leaf stage, visual score after about 3 weeks, 100% = plants have died
Procedure: as §2

Lolium multiflorum = test: Pre-emergence herbicidal effect, greenhouse pot test; conditions: 320 g a.i./ha, visual score after 3 weeks, 100% = plants have died, 0% = like control
Excerpt: as §1

Row | SMILES | pest or weed control at 320 g/ha (Alopecurus myosuroides [1]) | pest or weed control at 320 g/ha (Avena fatua [2]) | Herbicidal effect against [%] CYPES (Cyperus esculentus) | pest or weed control at 320 g/ha (Echinochloa crus-galli [3]) | Herbicidal effect against [%] HORMU (Hordeum murinum [4]) | Herbicidal effect against [%] LOLRI (Lolium rigidium [5]) | pest or weed control at 320 g/ha (Setaria viridis [6]) | pest or weed control at 80 g/ha (Alopecurus myosuroides [7]) | Herbicidal effect against [%] AVEFA (Avena fatua [8]) | pest or weed control at 80 g/ha (Echinochloa crus-galli [9]) | Herbicidal effect against [%] HORMU (Hordeum murinum [10]) | Herbicidal effect against [%] LOLRI (Lolium rigidium [11]) | pest or weed control at 80 g/ha (Setaria viridis [12]) | Herbicidal effect against [%] STEME (Stellaria media) | Herbicidal effect against [%] LOLMU (Lolium multiflorum)
1 | CC#Cc1cc(C)c(C2=C(OC(=O)OCC)C3(CCC(OCC)CC3)NC2=O)c(C)c1 (single isomer, unassigned) [Example P5] | 80 to 100% | 80 to 100% | 100% | 80 to 100% | 100% | 100% | 80 to 100% | 80 to 100% | 100% | 80 to 100% | 100% | 100% | 80 to 100% | 100% | –
2 | CC#Cc1cc(C)c(C2=C(OC(=O)OCC)C3(CCC(OCC)CC3)NC2=O)c(C)c1 (single isomer, unassigned) [Example P6] | – | – | 90% | – | 90% | 100% | – | – | 90% | – | 80% | 100% | – | 20% | –
3 | CC#Cc1cc(C)c(C2=C(O)C3(CCC(OCC)CC3)NC2=O)c(CC)c1 (stereo not shown) [Example D4] | 80 to 100% | 80 to 100% | 70% | 80 to 100% | 100% | 100% | 80 to 100% | 80 to 100% | 100% | 80 to 100% | 100% | 100% | 80 to 100% | 10% | –
4 | CC#Cc1cc(C)c(C2=C(O)C3(CCC(OCC)CC3)NC2=O)c(C)c1 (stereo not shown) [Example D6] | 80 to 100% | – | 100% | 80 to 100% | 100% | 100% | 80 to 100% | 80 to 100% | 100% | 80 to 100% | 100% | 100% | 80 to 100% | 90% | –
5 | CC#Cc1cc(C)c(C2=C(O)C3(CCC(OCC)CC3)NC2=O)c(C)c1 (stereo not shown) [Example D7] | – | – | – | – | 100% | 100% | – | – | 100% | – | 60% | 100% | – | 20% | –
6 | CCc1cc(C#CC2CC2)cc(C)c1C1=C(O)C2(CCC(OC)CC2)NC1=O (stereo not shown) [Example D10] | 80 to 100% | 80 to 100% | – | 80 to 100% | – | – | 80 to 100% | 90 to 100% | – | 90 to 100% | – | – | 90 to 100% | – | 100%
7 | COC1CCC2(CC1)NC(=O)C(c1c(C)cc(C#CC3CC3)cc1C)=C2O (stereo not drawn) [Example D11, cis-3-[4-(Cyclopropylethynyl)-2,6-dimethylphenyl]-4-hydroxy-8-methoxy-1-azaspiro[4.5]dec-3-en-2-one] | 80 to 100% | 80 to 100% | – | 80 to 100% | – | – | 80 to 100% | 90 to 100% | – | 90 to 100% | – | – | 90 to 100% | – | 100%
8 | CC#Cc1cc(C)c(C2=C(OC(=O)OC)C3(CCC(OCC)CC3)NC2=O)c(C)c1 (stereo not shown) [Example P7] | 80 to 100% | 80 to 100% | 100% | 80 to 100% | 100% | 100% | 80 to 100% | 80 to 100% | 100% | 80 to 100% | 100% | 100% | 80 to 100% | 100% | –
9 | CC#Cc1cc(C)c(C2=C(OC(=O)C(C)C)C3(CCC(OCC)CC3)NC2=O)c(C)c1 (stereo not shown) [Example P8] | 80 to 100% | 80 to 100% | 100% | 80 to 100% | 100% | 100% | 80 to 100% | 80 to 100% | 100% | 80 to 100% | 100% | 100% | 80 to 100% | 60% | –
10 | CC#Cc1cc(C)c(C2=C(OC(=O)OCC)C3(CCC(OCC)CC3)NC2=O)c(CC)c1 (stereo not shown) [Example P9] | – | – | 60% | – | 100% | 100% | – | – | 100% | – | 100% | 100% | – | 40% | –
11 | CC#Cc1cc(C)c(C2=C(OC(=O)OCC)C3(CCC(OCC)CC3)NC2=O)c(CC)c1 (stereo not shown) [Example P10] | 80 to 100% | 80 to 100% | – | 80 to 100% | 90% | 100% | 80 to 100% | 80 to 100% | 90% | 80 to 100% | 100% | 100% | 80 to 100% | 10% | –
12 | CCOC(=O)OC1=C(c2c(C)cc(C#CC3CC3)cc2CC)C(=O)NC12CCC(OC)CC2 (stereo not shown) [Example P14] | 80 to 100% | 80 to 100% | – | 80 to 100% | – | – | 80 to 100% | 90 to 100% | – | 90 to 100% | – | – | 90 to 100% | – | 100%
13 | CCc1cc(C#CC2CC2)cc(C)c1C1=C(OC(=O)C(C)C)C2(CCC(OC)CC2)NC1=O (stereo not shown) [Example P15] | 80 to 100% | 80 to 100% | – | 80 to 100% | – | – | 80 to 100% | 90 to 100% | – | 90 to 100% | – | – | 90 to 100% | – | 100%
14 | CC#Cc1cc(C)c(C2=C(O)C3(CCC(OCC)CC3)NC2=O)c(C)c1 (stereo not shown) [Example S3] | – | – | 80% | – | 100% | 100% | – | – | 100% | – | 100% | 100% | – | 100% | –
15 | CC#Cc1cc(C)c(C2=C(O)C3(CCC(OCC)CC3)NC2=O)c(CC)c1 (stereo not shown) [Example S4] | – | – | 60% | – | 100% | 100% | – | – | 100% | – | 100% | 100% | – | 10% | –
